Tested on: patients with rheumatoid arthritis
Experiment: Phase II clinical study in rheumatoid arthritis: effectiveness (symptoms, physical examination, comprehensive evaluation)
Format: in vivo, human
Procedure: It was a multiple-centered, randomized, parallel, positive controlled Phrase II clinical study.
All clinical studies except the above mentioned 120 cases were conducted in a single-blind condition.
1) Age 18˜65, male or female who agreed to the investigational treatment for 12 weeks to 6 months. History of rheumatoid arthritis was within 3 years.
2) Documented Rheumatoid Arthritis based on a diagnostic criteria of 1987 Revised ARA Criteria for the Classification of Rheumatoid Arthritis
3) Diagnosis of a typical active stage of RA: A patient is said to be on an active stage of RA if he or she has satisfied at least 4 of the following 5 items.
2) Patient who quitted the treatment for the ineffectiveness 7 days after the start of administration was included in the efficacy analysis. Patient who quitted the treatment for the side effects was not included in the efficacy analysis but the safety analyses.
1) The placebo run-in period: Seven days before administration, the selected patients stopped using NSAIDs and took a placebo instead.
4) For the double-blinded study, patients in both groups would be given capsules and tablets in same shapes, odors and amount. Placebo of capsule or tablet were included. Neither doctors nor patients can tell the group of treatment from the other.
5) No analgesics, anti-inflammation drugs, immune regulatory agents or muscle relaxants were allowed during the period of study. Acetaminophen could be used when necessary. If a physical therapy was started before enrollment, it was allowed to be continued, yet, it should be taken all the way during the period of clinical study.
1) Pain at rest: patients were asked to scale the degree of pain with a ruler [drawing 1]
2) Morning stiffness: Patients were requested to make notes on duration of their morning joint stiffness, a time span from its appearance to recovery in minutes every morning. The doctors should evaluate their record sheets by questioning them. For example “Do you fell stiff in any of your joints? (today, these 2 days)” When get a “yes” in answer, then “when did you get up today?” and “when does the stiffness be gone?”
3) Swelling of joints: Take count of the index of joint swelling by summing up the degree number of each joint.
0=normal; 1=swelling soft tissues (synovium) without hydrarthrus; 2=swelling soft tissues (synovium) with hydrarthrus.
4) Tenderness of joints: Take count of the index of joint tenderness by summing up the degree number of each joint:
5) Grip strength: Fold the arm belt of a sphygmomanometer twice and seal it in a small cloth bag suitable for a hand to hold. Aerates the belt in pressure of 20 mm Hg. Patients were asked to grip the bag with their not braced left and right hand, the grip strength is the average pressures in mm Hg for three times.
6) Time consumed for a 15 meters' walk (Seconds): Time started from a calm standing to the final of 15 meters. The average of three times.
7) General joint function (criteria of ARA):
8) Self-scoring and physician's grading on disease conditions: Both patients and doctors were required to submit their score sheet every time on follow-up survey. The scoring was made upon following criteria:
9) Patient's general condition: condition on the physical strength, sleep and appetite.
No effect: less than 30% improvement in symptoms and physical signs.
Improved: About 50% improvement in symptoms and physical signs (including general conditions in physical strength, sleep and appetite).

[1] = double blind, n = 60 per group, 4 weeks
[2] = double blind, n = 60 per group, 8 weeks
[3] = double blind, n = 60 per group, 12 weeks

CN(Cc1cnc2nc(N)nc(N)c2n1)c1ccc(C(=O)N[C@@H](CCC(=O)O)C(=O)O)cc1 [MTX, Methotrexate]
Effective rate (4 weeks): 47.2%
Overall effectiveness: Improved, % of patients (4 weeks): 36.6%
Overall effectiveness: Improved, number of patient (4 weeks): 52
Overall effectiveness: No effect, % of patients (4 weeks): 52.8%
Overall effectiveness: No effect, number of patient (4 weeks): 75
Overall effectiveness: Obv. improved, % of patients (4 weeks): 10.6%
Overall effectiveness: Obv. improved, number of patient (4 weeks): 15
Effective rate (8 weeks): 64.8%
Overall effectiveness: Improved, % of patients (8 weeks): 31.7%
Overall effectiveness: Improved, number of patient (8 weeks): 45
Overall effectiveness: No effect, % of patients (8 weeks): 35.2%
Overall effectiveness: No effect, number of patient (8 weeks): 50
Overall effectiveness: Obv. improved, % of patients (8 weeks): 33.1%
Overall effectiveness: Obv. improved, number of patient (8 weeks): 47
Effective rate (12 weeks): 77.5%
Overall effectiveness: Improved, % of patients (12 weeks): 28.9%
Overall effectiveness: Improved, number of patient (12 weeks): 41
Overall effectiveness: No effect, % of patients (12 weeks): 22.5%
Overall effectiveness: No effect, number of patient (12 weeks): 32
Overall effectiveness: Obv. improved, % of patients (12 weeks): 48.6%
Overall effectiveness: Obv. improved, number of patient (12 weeks): 69
Effective rate (24 weeks): 81.7%
Overall effectiveness: Improved, % of patients (24 weeks): 10.0%
Overall effectiveness: Improved, number of patient (24 weeks): 6
Overall effectiveness: No effect, % of patients (24 weeks): 18.3%
Overall effectiveness: No effect, number of patient (24 weeks): 11
Overall effectiveness: Obv. improved, % of patients (24 weeks): 71.7%
Overall effectiveness: Obv. improved, number of patient (24 weeks): 43
Changes in RA perimeters: GS-L (double blind, 4 weeks, mean): 12.70
Changes in RA perimeters: GS-R (double blind, 4 weeks, mean): 12.05
Changes in RA perimeters: ISJ (double blind, 4 weeks, mean): 2.47
Changes in RA perimeters: ITJ (double blind, 4 weeks, mean): 6.83
Changes in RA perimeters: MR (double blind, 4 weeks, mean): 33.52
Changes in RA perimeters: NSJ (double blind, 4 weeks, mean): 1.92
Changes in RA perimeters: NTJ (double blind, 4 weeks, mean): 3.53
Changes in RA perimeters: PR (double blind, 4 weeks, mean): 1.33
Changes in RA perimeters: GS-L (double blind, 8 weeks, mean): 17.55
Changes in RA perimeters: GS-R (double blind, 8 weeks, mean): 16.68
Changes in RA perimeters: ISJ (double blind, 8 weeks, mean): 4.03
Changes in RA perimeters: ITJ (double blind, 8 weeks, mean): 9.53
Changes in RA perimeters: MR (double blind, 8 weeks, mean): 41.03
Changes in RA perimeters: NSJ (double blind, 8 weeks, mean): 2.97
Changes in RA perimeters: NTJ (double blind, 8 weeks, mean): 5.52
Changes in RA perimeters: PR (double blind, 8 weeks, mean): 1.94
Changes in RA perimeters: GS, L (double blind, 12 weeks, mean): 22.03
Changes in RA perimeters: GS, R (double blind, 12 weeks, mean): 21.85
Changes in RA perimeters: ITJ (double blind, 12 weeks, mean): 11.59
Changes in RA perimeters: MR (double blind, 12 weeks, mean): 46.08
Changes in RA perimeters: NSJ (double blind, 12 weeks, mean): 3.92
Changes in RA perimeters: NTJ (double blind, 12 weeks, mean): 6.73
Changes in RA perimeters: PR (double blind, 12 weeks, mean): 2.60
Changes in RA perimeters: TSJ (double blind, 12 weeks, mean): 5.08
Effective rate [1]: 43.3%
Improved, % of patients [1]: (31.7%)
Improved, number of patients [1]: 19
No effect, % of patients [1]: (56.7%)
No effect, number of patients [1]: 34
Obviously improved, % of patients [1]: (11.7%)
Obviously improved, number of patients [1]: 7
Effective rate [2]: 66.7%
Improved, % of patients [2]: (31.7%)
Improved, number of patients [2]: 19
No effect, % of patients [2]: (33.3%)
No effect, number of patients [2]: 20
Obviously improved, % of patients [2]: (35.0%)
Obviously improved, number of patients [2]: 21
Effective rate [3]: 75.0%
Improved, % of patients [3]: (26.7%)
Improved, number of patients [3]: 16
No effect, % of patients [3]: (25.0%)
